Laboratory results from paper PMC6397177, “An uncharacterized FMAG_01619 protein from Fusobacterium mortiferum ATCC 9817 demonstrates that some bacterial macrodomains can also act as poly-ADP-ribosylhydrolases” (Scientific Reports, 2019).

How the values were obtained:
[1] = molecular target: T1, hTARG1 (Homo sapiens, UniProt Q9Y530); experiment: thermal shift assay, SYPRO Orange; format: binding; details: 100 mM phosphate pH 7.0; ligand up to 50 mM
T1 construct: gene OARD1; synthetic gene in pET28a; E. coli Rosetta2(DE3); tag removal not clearly told
T1 sequence (Q9Y530 2-152): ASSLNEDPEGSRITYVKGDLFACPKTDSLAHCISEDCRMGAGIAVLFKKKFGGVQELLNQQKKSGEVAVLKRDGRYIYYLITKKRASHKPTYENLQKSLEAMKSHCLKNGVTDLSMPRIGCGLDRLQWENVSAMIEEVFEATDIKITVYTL

[2] = molecular target: T2, FmTARG1 (Fusobacterium mortiferum, UniProt A0ABN5JAQ3); experiment: thermal shift assay, SYPRO Orange; format: binding; details: 100 mM phosphate pH 7.0; ligand up to 50 mM
T2 construct: gene C4N19_10685; synthetic gene in pSol-AFV, AFV-tag removed with TEV protease; expressed in E. coli 10G
T2 sequence (A0ABN5JAQ3 2-142 limits assumed): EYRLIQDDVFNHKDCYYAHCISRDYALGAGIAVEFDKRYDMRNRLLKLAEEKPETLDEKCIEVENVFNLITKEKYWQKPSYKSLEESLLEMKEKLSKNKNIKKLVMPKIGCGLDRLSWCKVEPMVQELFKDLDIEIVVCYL

[3] = molecular target: T2, FmTARG1; experiment: HPLC deacetylation assay; format: biochemical; details: competitive against OAADPr; Bis-Tris pH 7.3, 300 mM NaCl, 25 °C

Row | SMILES | dTm [1] | dTm [2] | Ki [3] [µM]
1 | Nc1ncnc2c1ncn2[C@@H]1O[C@H](COP(=O)(O)OP(=O)(O)O)[C@@H](O)[C@H]1O [ADP] | AMP and ADP, also bind to both enzymes in a dose-dependent manner | AMP and ADP, also bind to both enzymes in a dose-dependent manner | 
2 | Nc1ncnc2c1ncn2[C@@H]1O[C@H](COP(=O)(O)O)[C@@H](O)[C@H]1O [AMP] | AMP and ADP, also bind to both enzymes in a dose-dependent manner | AMP and ADP, also bind to both enzymes in a dose-dependent manner | 
3 | Nc1ncnc2c1ncn2[C@@H]1O[C@H](COP(=O)(O)OP(=O)(O)OC[C@H]2OC(O)[C@H](O)[C@@H]2O)[C@@H](O)[C@H]1O (some centres unmarked) [ADPr] |  |  | 203 ± 10
